Earlier results on one compound are cited in patent US7863277B1, “Topical antipsychotic composition” (Medcara, L.L.C., priority 2005, dated 2011).

The conditions of the data set: decreasing absorption when not taken concurrently with food.

As for `O=C1Cc2cc(CCN3CCN(c4nsc5ccccc45)CC3)c(Cl)cc2N1` [ziprasidone, 5-(2-(4-(1,2-benzisothiazol-3-yl)piperazinyl)ethyl)-6-chloro-1,3-dihydro-2(1H)-indole-2-one], the Oral bioavailability entry is reported as “about 60%”.
